From US10421761B2, “Compounds for kinase modulation, and indications therefor” (Plexxikon Inc., priority 2013, dated 2019)
Values belong to the compound of their own block, whether it stands above or below them.

Assays:
[1] = tested on: IPC-298 (NRAS Q61L) cell line; test: IPC-298 P-ERK cell activation assay (AlphaScreen); assay type: cell-based, human; conditions: Homo sapiens; P-ERK cell activation, IPC-298; numeric bounds; read-out: Cell activity (EC50 μM) IPC-298_P-ERK
Description: (§1) B9 is a squamous cell carcinoma cell line expressing activated HRAS that was isolated from a DMBA/TPA-induced mouse model of skin carcinogenesis (Stoler, et al. The Journal of Cell Biology, 1993, 122(5), 1103-17). IPC-298 is a human melanoma cell line that expresses activated NRAS (Aubert, et al. International Journal of Cancer, 1993, 54(5), 784-92). To determine whether compounds induce phosphorylated ERK and MEK, cells are plated in a 96-well dish and treated with an 8-point titration of compound for one hour at 37° C. The media is then removed and the cells are incubated with lysis buffer containing protease and phosphatase inhibitors. Phosphorylated ERK and MEK in the resulting lysates is detected using AlphaScreen™ technology. To detect phosphorylated ERK, cell lysates are incubated with streptavidin-coated donor beads, anti-mouse IgG acceptor beads, a biotinylated anti-ERK1/2 rabbit antibody, and a mouse antibody that recognizes ERK1/2 only when it is phosphorylated on Thr202 and Tyr204. The biotinylated ERK1/2 antibody will bind to both the streptavidin-coated donor beads and to ERK1/2 (regardless of its phosphorylation state), and the phospho-ERK1/2 antibody will bind to the acceptor beads and to ERK1/2 that is phosphorylated at Thr202/Tyr204. Excitation of the beads with laser light at 680 nm produces singlet oxygen, which is rapidly quenched unless the beads are in close proximity. When ERK is phosphorylated, both antibodies can bind the same protein, bringing the donor and acceptor beads into close proximity, producing a signal that can be measured at 580 nm. MEK phosphorylation is detected using a similar approach, only with antibodies directed against total MEK1/2 and MEK1/2 that is phosphorylated at Ser217 and Ser221.
(§2) Phospho-ERK AlphaScreen® assay. To determine the effects of compound treatment upon phosphorylation of ERK1/2, cells were plated in a 96-well dish and treated with an 8-point titration of compound for one hour at 37° C. before lysis. To detect pERK, cell lysates were incubated with streptavidin-coated AlphaScreen® donor beads, anti-mouse IgG AlphaScreen® acceptor beads, a biotinylated anti-ERK1/2 rabbit antibody, and a mouse antibody that recognizes ERK1/2 only when it is phosphorylated on Thr202 and Tyr204. The biotinylated ERK1/2 antibody binds to both the streptavidin-coated AlphaScreen® donor beads and to ERK1/2 (regardless of its phosphorylation state), and the phospho-ERK1/2 antibody binds to the acceptor beads and to ERK1/2 that is phosphorylated at Thr202/Tyr204. An increase in ERK1/2 phosphorylation at Thr202/Tyr204 brings the donor and acceptor AlphaScreen® beads into close proximity, generating a signal that can be quantified on an EnVision reader (Perkin Elmer).

BRAF V600E = target: T1, BRAF V600E (Homo sapiens, UniProt P15056, V600E); test: BRAF V600E biochemical kinase activity assay (AlphaScreen, biotin-MEK1 substrate); conditions: BRAF V600E biochemical inhibitory activity
T1 construct: purchased Upstate Biotechnology
T1 sequence (P15056 whole entry V600E): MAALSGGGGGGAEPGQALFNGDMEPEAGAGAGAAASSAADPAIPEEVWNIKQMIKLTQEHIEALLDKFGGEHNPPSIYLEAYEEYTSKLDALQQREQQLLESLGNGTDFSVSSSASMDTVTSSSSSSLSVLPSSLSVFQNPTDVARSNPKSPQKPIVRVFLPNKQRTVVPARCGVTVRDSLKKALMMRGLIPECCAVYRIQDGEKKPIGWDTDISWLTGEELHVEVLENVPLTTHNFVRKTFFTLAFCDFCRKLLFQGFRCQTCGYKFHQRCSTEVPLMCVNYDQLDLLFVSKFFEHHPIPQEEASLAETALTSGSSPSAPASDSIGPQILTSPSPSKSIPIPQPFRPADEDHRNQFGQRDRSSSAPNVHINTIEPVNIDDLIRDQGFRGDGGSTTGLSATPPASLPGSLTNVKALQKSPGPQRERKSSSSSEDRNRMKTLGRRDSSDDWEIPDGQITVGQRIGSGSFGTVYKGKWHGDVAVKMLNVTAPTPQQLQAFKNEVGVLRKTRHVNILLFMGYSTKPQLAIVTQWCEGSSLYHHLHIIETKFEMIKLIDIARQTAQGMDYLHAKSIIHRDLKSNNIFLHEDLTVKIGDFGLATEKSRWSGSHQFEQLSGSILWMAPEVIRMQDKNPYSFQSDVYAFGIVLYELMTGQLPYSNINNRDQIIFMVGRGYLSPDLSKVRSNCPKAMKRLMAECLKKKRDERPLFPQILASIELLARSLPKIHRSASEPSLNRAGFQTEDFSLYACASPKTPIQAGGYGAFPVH
Description: Compounds to be tested are diluted in dimethyl sulfoxide to a concentration of 0.1 mM. These are serially diluted 15 μL into 30 μL of dimethyl sulfoxide seven times in 96 well plates for a total of 8 dilution points, and for each dilution point 1 μL is added to a well of an assay plate. […] The reaction is started with addition of 10 μL of 200 μM ATP (i.e. final 100 μM ATP). After incubation of the kinase reaction for 45 minutes at room temperature, 5 μL/well of Stop Solution is added (25 mM Hepes pH 7.5, 100 mM EDTA, 0.01% BSA with donor beads (Streptavidin coated beads, Perkin Elmer), acceptor beads (Protein A coated, Perkin Elmer), and anti-phosphor MEK1/2 antibody (CellSignal), each at final concentration 10 μg/mL). The plates are incubated for 3 hours at room temperature and read on Envision reader (Perkin Elmer). Phosphorylation of Mek1 results in binding of the anti-phosphor-MEK1/2antibody and association of the donor and acceptor beads such that signal correlates with kinase activity. The signal versus compound concentration is used to determine the IC50.
The in vitro RAF kinase activities were determined by measuring phosphorylation of a biotinylated substrate peptide as described previously (Tsai, J. et al. Proc Natl Acad Sci USA 105, 3041-3046 (2008)). Compounds of formula (I), e.g., compound A, was also tested against a panel of 287 kinases at concentrations of 1 μM in duplicate. Kinases inhibited by over 50% were followed up by IC50 determination. The 287 kinases represent all major branches of the kinome phylogenetic tree. The inhibition screen of 287 kinases was carried out under contract as complementary panels at Invitrogen (Life Technologies, Wis., USA) SelectScreen™ profiling service, DiscoverX (CA, USA) KINOMEScan™ service, and Reaction Biology Corporation (PA, USA) Kinase HotSpot℠ service.

B9 (HRAS Q61L) cell line = test: B9 P-ERK cell activation assay (AlphaScreen); assay type: cell-based, mouse; conditions: Mus musculus; P-ERK cell activation, B9; numeric bounds; read-out: Cell activity (EC50 μM) B9_pERK
Description: as §1, §2

[2] = tested on: A375 (BRAF V600E) cell line; test: A375 P-ERK inhibition assay (AlphaScreen); assay type: cell-based, human; conditions: Homo sapiens, A-375; A375_P-ERK
Description: as §2

SMILES: CCN(CC)S(=O)(=O)Nc1ccc(F)c(C(=O)c2c[nH]c3nccc(C#N)c23)c1F [P-2012, 4-cyano-3-[3-(diethylsulfamoylamino)-2,6-difluoro-benzoyl]-1H-pyrrolo[2,3-b]pyridine]
EC50 [1]: > 10 µM | IC50 (BRAF V600E): 0.0001 to 1 µM | EC50 (B9 (HRAS Q61L) cell line): > 10 µM | IC50 [2]: 1 to 10 µM

SMILES: CCN(C)S(=O)(=O)Nc1cccc(C(=O)c2c[nH]c3ncnc(NC4CCC4)c23)c1F [P-2072, 4-(cyclobutylamino)-5-[3-[[ethyl(methyl)sulfamoyl]amino]-2-fluoro-benzoyl]-7H-pyrrolo[2,3-d]pyrimidine]
EC50 [1]: > 10 µM | IC50 (BRAF V600E): 0.0001 to 1 µM | EC50 (B9 (HRAS Q61L) cell line): > 10 µM | IC50 [2]: 0.0001 to 1 µM

SMILES: COc1ccnc2[nH]cc(C(=O)c3c(F)ccc(NS(=O)(=O)C(C)C)c3F)c12 [Compound P-2001, N-[2,4-difluoro-3-(4-methoxy-1H-pyrrolo[2,3-b]pyridine-3-carbonyl)phenyl]propane-2-sulfonamide]
EC50 [1]: > 10 µM | IC50 (BRAF V600E): 0.0001 to 1 µM | EC50 (B9 (HRAS Q61L) cell line): > 10 µM | IC50 [2]: > 10 µM

SMILES: CCN(C)S(=O)(=O)Nc1cccc(C(=O)c2c[nH]c3ncnc(C4CC4)c23)c1F [P-2091, 4-cyclopropyl-5-[3-[[ethyl(methyl)sulfamoyl]amino]-2-fluoro-benzoyl]-7H-pyrrolo[2,3-d]pyrimidine]
EC50 [1]: > 10 µM | IC50 (BRAF V600E): 0.0001 to 1 µM | EC50 (B9 (HRAS Q61L) cell line): > 10 µM | IC50 [2]: 0.0001 to 1 µM

SMILES: COCCNc1ncnc2[nH]cc(C(=O)c3cccc(NS(=O)(=O)N4CCCC4)c3F)c12 [P-2104, N-[2-fluoro-3-[4-(2-methoxyethylamino)-7H-pyrrolo[2,3-d]pyrimidine-5-carbonyl]phenyl]pyrrolidine-1-sulfonamide]
EC50 [1]: > 10 µM | IC50 (BRAF V600E): 0.0001 to 1 µM | EC50 (B9 (HRAS Q61L) cell line): > 10 µM | IC50 [2]: 0.0001 to 1 µM

SMILES: CC(C)Nc1ncnc2[nH]cc(C(=O)c3c(F)ccc(NS(=O)(=O)C4CCCC4)c3F)c12 [P-2040, N-[2,4-difluoro-3-[4-(isopropylamino)-7H-pyrrolo[2,3-d]pyrimidine-5-carbonyl]phenyl]cyclopentanesulfonamide]
EC50 [1]: > 10 µM | IC50 (BRAF V600E): 0.0001 to 1 µM | EC50 (B9 (HRAS Q61L) cell line): > 10 µM | IC50 [2]: 0.0001 to 1 µM

Other lines, results leading:

EC50 [1]: > 10 µM | IC50 (BRAF V600E): 0.0001 to 1 µM | EC50 (B9 (HRAS Q61L) cell line): > 10 µM | IC50 [2]: 1 to 10 µM
SMILES: CCN(CC)S(=O)(=O)Nc1ccc(F)c(C(=O)c2c[nH]c3nccc(Cl)c23)c1F [Compound P-2011, 4-chloro-3-[3-(diethylsulfamoylamino)-2,6-difluoro-benzoyl]-1H-pyrrolo[2,3-b]pyridine]

EC50 [1]: > 10 µM | IC50 (BRAF V600E): 0.0001 to 1 µM | EC50 (B9 (HRAS Q61L) cell line): > 10 µM | IC50 [2]: 0.0001 to 1 µM
SMILES: CCN(C)S(=O)(=O)Nc1cccc(C(=O)c2c[nH]c3ncnc(N[C@H](C)C4CC4)c23)c1F [P-2079, 4-[[(1R)-1-cyclopropylethyl]amino]-5-[3-[[ethyl(methyl)sulfamoyl]amino]-2-fluoro-benzoyl]-7H-pyrrolo[2,3-d]pyrimidine]

EC50 [1]: > 10 µM | IC50 (BRAF V600E): 0.0001 to 1 µM | EC50 (B9 (HRAS Q61L) cell line): > 10 µM | IC50 [2]: 0.0001 to 1 µM
SMILES: CNc1ncnc2[nH]cc(C(=O)c3cccc(NS(=O)(=O)N4CCCC4)c3F)c12 [P-2071, N-[2-fluoro-3-[4-(methylamino)-7H-pyrrolo[2,3-d]pyrimidine-5-carbonyl]phenyl]pyrrolidine-1-sulfonamide]

EC50 [1]: > 10 µM | IC50 (BRAF V600E): 0.0001 to 1 µM | EC50 (B9 (HRAS Q61L) cell line): > 10 µM | IC50 [2]: 1 to 10 µM
SMILES: COc1ccnc2[nH]cc(C(=O)c3c(F)ccc(NS(=O)(=O)C4CCC4)c3F)c12 [Compound P-2010, N-[2,4-difluoro-3-(4-methoxy-1H-pyrrolo[2,3-b]pyridine-3-carbonyl)phenyl]cyclobutanesulfonamide]

EC50 [1]: > 10 µM | IC50 (BRAF V600E): 0.0001 to 1 µM | EC50 (B9 (HRAS Q61L) cell line): > 10 µM
SMILES: Cc1cc(NS(=O)(=O)N2CC[C@@H](F)C2)c(F)c(C(=O)c2c[nH]c3ncc(-c4cnc(C5CC5)nc4)cc23)c1 [P-2182, (3R)-N-[3-[5-(2-cyclopropylpyrimidin-5-yl)-1H-pyrrolo[2,3-b]pyridine-3-carbonyl]-2-fluoro-5-methyl-phenyl]-3-fluoro-pyrrolidine-1-sulfonamide]
